# In patent publication US8846330B2, “Methods and kits for the diagnosis of RyR1-related diseases” (The Henry M. Jackson Foundation for the Advancement of …, priority 2008, dated 2014):
# “Also recorded” adds a separate entry of the source.
# Columns and labels:
# lymphocyte cells [1] = assay: 4CmC-induced adenosine/inosine in human peripheral blood lymphocytes, HPLC (Example 1); assay type: cell-based; conditions: 4CmC-stimulated lymphocytes
# Procedure: FIG. 2 is a dose-response curve for 4-chloro-m-cresol (4CmC)-induced intracellular adenosine plus inosine in lymphocyte cells from malignant hyperthermia susceptible (MHS, n=11), not-susceptible (MHN, n=9), and normal (n=7) subjects. Lymphocyte cells were treated with 4CmC in the presence of an inhibitor of adenosine deaminase (EHNA, 0.1 mM). After purification, aliquot was analyzed for adenosine and inosine content using HPLC. Adenosine plus inosine values in the absence of 4CmC are plotted against X=0.02 mM to allow logarithmic display of the entire dose response curve. Adenosine plus inosine levels were normalized to reflect per 1 million cells. 4CmC responses at 1, 2, and 5 mM on MHS groups are about 4, 4, and 6 fold higher than the corresponding values in MI-1N or normal groups with values of 6×10^−5, 8×10^−5, and […], respectively. There were no overlaps between the MHS group and the MHN or normal groups.
# Lymphocyte cells from MHS (n=11), MHN (n=9) and normal (n=7) subjects were suspended in normal HBSS plus 0.1% BSA and treated with adenosine deaminase inhibitor (EHNA, 0.1 mM). After 10 minutes of incubation at 37° C., cells were treated with HBSS, with and without the RyR1 agonist 4CmC (5 mM) and incubated at 37° C. for an additional 45 minutes. After termination and purification of the samples, aliquots (50 μl) were assayed in duplicate for adenosine and inosine content using HPLC. Concentrations are normalized to per 1 million cells. The sum of the adenosine plus inosine level is about 6-fold higher than corresponding values in normal and MHN cells.
# Pilot studies were conducted using blood samples from human subjects in the following groups: Group 1: MHS subjects with positive CHCT and/or having a known MH associated mutation (n=11); Group 2: non-MH susceptible with negative CHCT results (MHN) (n=9), and Group 3: normal subjects who had not undergone CHCT and had no family history of MH (n=7).
# Briefly, venous blood samples (20 ml) were drawn from patients using heparinized blood collection tubes. Peripheral blood lymphocyte cells were isolated from whole blood by the Ficoll-Hypaque centrifugation technique. Briefly, diluted anti-coagulated blood is layered over Ficoll-Hypaque and centrifuged. Mononuclear cells consisting of lymphocytes and some monocytes are recovered at the interface. The cells were washed with the Flanks' balanced salt solution (HBSS) buffer, re-suspended in the HBSS buffer, and treated with different concentration of 4CmC at 37° C. in the presence and/or absence of inhibitor of adenosine deaminase erythro-9-(2-hydroxy-3-nonyl)adenine (EHNA) for about 30 minutes. The cells were then purified by adding an equal volume of 6% HClO4 and centrifuged at 6000 rpm for 10 minutes. Aliquots of the supernatant were analyzed for adenosine and inosine content with HPLC using a Waters Separation Module (Model 2695) equipped with Waters Photodiode Array Detector and Empower software.
# lymphocyte cells [2] = assay: 4CmC-induced adenosine in human lymphocyte / immortalized B cells (Example 3); assay type: cell-based
# lymphocyte cells [3] = assay: 4CmC-induced adenosine in swine lymphocyte cells, nucleosides assay (Example 4); assay type: cell-based; conditions: for effect of azumolene on 4CmC-induced adenosine: azumolene up to 1 mM (0-1000 μM)
# Procedure: Isolation of lymphocytes from whole blood: Lymphocyte cells were isolated from whole blood by Ficoll-Hypaque density gradient centrifugation technique (see Boyum A., Scand. J. Clip. Lab. 97:77-89 (1968)). Isolated lymphocyte cells were dispensed into 3-volume normal Hanks' balanced salt solution (HBSS) and centrifuged (10 minutes at 1000 RPM). The pellet was re-suspended in HBSS to lyse contaminating erythrocytes and spun. The later step was repeated one more time. To maintain simplicity of the protocol for possible MH diagnostic purposes no further purification was attempted. Lymphocyte cells were then cultured in RPMI-1640 media supplemented with 10% fetal bovine serum, […] penicillin and 2 mM glutamine. Cell cultures were incubated at 37° C. in a humidified chamber with 5% CO2. All experiments were completed within 4 days after isolation of lymphocyte cells from whole blood samples.
# Nucleosides Assay Protocol: Briefly, lymphocyte cells (1−2×10^6 cells/test) were suspended in HBSS with or without Ca^2+/Mg^2+ (as indicated for each experiment) plus 0.1% bovine serum albumin (BSA). Experiments were carried out in the presence of the adenosine deaminase inhibitor erythro-9-(2-hydroxy-3-nonyl) adenine-HCl ([…]) to prevent deamination of adenosine to inosine (Lorbar et al., J Mol Cell Cardiol 31: 401-12 (1999)) and incubated at 37° C. for 10 minutes followed by treatment with different 4CmC concentrations (0.05-10 mM). Further incubation at 37° C. for an additional 45 minutes was also carried out. Final volumes of the test tubes were adjusted to 0.2 ml using HBSS buffer. Termination of the cell activity and purification of samples was accomplished by addition of 0.1 ml 12% perchloric acid followed by centrifugation at 5000 RPM for 10 minutes. Aliquots of the supernatant (50 μl) were assayed for adenosine and inosine content using HPLC.
# HPLC Conditions: The HPLC system consisted of a Waters Symmetry C18 column (4.6×250 mm) and mobile phase of 94% KH2PO4 (50 mM, pH 4.6) containing 1-heptanesulfonic acid (0.5 mM) and 6% acetonitrile. Under these conditions, retention times for inosine and adenosine were 4 and 7.3 min, respectively. Peak width of inosine and adenosine were 18 and 36 seconds, respectively. Eluting compounds were detected by their absorbance at 254 nm using a Waters photodiode array detector (model 996). Sample adenosine and inosine concentrations were obtained using a calibrated standard curve of concentrations vs. peak area.
# Statistics: Sample nucleosides concentrations were normalized to represent per 1 million cells and presented as means±SEM. The t-test was applied to test for differences between agonist-induced nucleosides in lymphocyte cells from MHS and normal swine. A P<0.05 considered to indicate statistical significance.
# [4] = system: biopsied skeletal muscle strips; assay: caffeine halothane contracture test (CHCT), human muscle strips; conditions: 2 mM caffeine, average of 3 muscle strips
# From the text: Currently definitive MH diagnosis is made by means of the invasive, surgery-requiring caffeine halothane contracture test (CHCT) in North America, by a similar in vitro contracture test (IVCT) in Europe and by technically very difficult calcium induced calcium release (CICR) in Japan; all these tests use biopsied leg muscle (Vasitis lateralis). Other countries are using tests essentially similar to one or these tests. CHCT has a sensitivity of 97% (accurately detects MH susceptible individuals) with a specificity of only 78% (yields 22% false positives). However, because of the invasive surgery, the costs of the test, and the limited viability of the biopsied skeletal muscle samples, the CHCT must be completed within 5 hours post biopsy. Therefore, the muscle biopsies must be conducted at a certified MH diagnostic center or in close-by hospitals (currently there are only 6 MH diagnostic centers in North America). Because of these procedural and logistic complexities, it is estimated that only about 10% of all individuals eligible to undergo the CHCT test are actually tested (estimated from referrals to the North American Malignant Hyperthermia Hotline).
# [5] = system: skeletal muscle strips (Vastus lateralis); assay: caffeine halothane contracture test (CHCT), swine muscle strips
# [6] = muscle strips from normal swine
compound,measurement,setting,value
"CCCCCC[C@@H]([C@@H](C)O)n1cnc2c(N)ncnc21 (racemic) [EHNA, erythro-9(2-hydroxy-3-nonyl)adenine]","EHNA concentration at which inosine formation decreased, matched by equimolar increase in adenosine",lymphocyte cells [1],≥ 10 µM
same,inhibition of ADO deaminase by EHNA,"lymphocyte cells [2]; immortalized B cells from a CHCT positive (MHS) subject, 4CmC 2 mM, FIG. 4",effectively inhibited
same,EHNA concentration at which inosine formation decreased and ADO increased to plateau level,lymphocyte cells [3]; swine lymphocytes (n=3),≥ 20 µM
"C1CCC[C@H]2CCCN3CC[C@@H](CCCCCC[C@@H]4CCCN5CC[C@@H](CC1)O[C@@H]45)O[C@@H]23 [XeC, Xestospongin C]",effect of XeC alone on basal ADO levels,lymphocyte cells [2]; XeC 1 and 10 μM,did not produce any change
same,effect of XeC on response of B cells to 4CmC,"lymphocyte cells [2]; immortalized B cells (MHS, n=3), Ca2+ free HBSS, 2 mM 4CmC",did not affect
same,effect of XeC on 4CmC-induced ADO,"lymphocyte cells [3]; 1 μM XeC, 2 mM 4CmC, normal swine",did also not affect
same,decrease of 4CmC-induced ADO by XeC,"lymphocyte cells [3]; 10 μM XeC, 2 mM 4CmC, normal swine (n=5)",27%
same,effect of XeC alone on basal ADO levels,"lymphocyte cells [3]; XeC 1 and 10 μM, Ca2+/Mg2+-free HBSS",did not affect
same,effect of XeC on 4CmC (2 mM)-induced adenosine,"lymphocyte cells [3]; XeC as printed in figure legend, normal swine",Significantly (P=0.002) Reduced
O=C1CN(/N=C/c2ncc(-c3ccc(Br)cc3)o2)C(=O)N1 [azumolene],effect of azumolene on 4CmC-induced adenosine,"lymphocyte cells [3]; 1 mM 4CmC, normal swine (n=5), Ca2+/Mg2+-free HBSS",only marginally inhibited
same,effect of azumolene on 4CmC-induced adenosine,"lymphocyte cells [3]; 1 mM 4CmC, normal swine (n=5), Ca2+/Mg2+-free HBSS, listed as Azumolene",did not significantly decrease; also recorded: did not significantly affect
same,Ki,"lymphocyte cells [3]; non-linear curve fitting, 1 mM 4CmC, read-out: apparent Ki value of azumolene for inhibition of 4CmC-induced ADO formation",~5 mM
"Cn1c(=O)c2c(ncn2C)n(C)c1=O [Caffeine, caffeine]",CHCT Results Contractures (g) 2 mM Caf,"[4]; Table 1, CHCT-negative subjects",0 g
same,CHCT Results Contractures (g) 2 mM Caf,"[4]; Table 2, MHN subjects",0 g
same,"Caffeine (2 mM)-induced contractures, range",[5]; muscle strips from MHS swine,4.7-17.1 mN
same,"Caffeine (2 mM)-induced contractures, mean",[5]; [6],0.4 mN
same,"Caffeine (2 mM)-induced contractures, range",[5]; [6],0-1 mN
"FC(F)(F)C(Cl)Br (centres unmarked) [Halothane, halothane]","Halothane (3%)-induced contractures, mean",[5]; muscle strips from MHS swine,19.2±3.1 mN
same,"Halothane (3%)-induced contractures, range",[5]; muscle strips from MHS swine,11.2-33.1 mN
same,"Halothane (3%)-induced contractures, mean",[5]; [6],1.2±1.0 mN
same,"Halothane (3%)-induced contractures, range",[5]; [6],0-1.8 mN
"N#CC(C#N)=NNc1ccc(OC(F)(F)F)cc1 [FCCP, Carbonyl cyanide 4-(trifluoromethoxy) phenylhydrazone]",ADO level reached with FCCP alone,"lymphocyte cells [3]; FCCP 2 and 20 μM, FIG. 14A",0.1 to 0.12 µM
same,effect of FCCP on basal adenosine levels,"lymphocyte cells [3]; FCCP 2 and 20 μM, FIG. 14A",significantly increased
same,increase of basal ADO levels by FCCP alone,"lymphocyte cells [3]; FCCP 2 and 20 μM, normal swine, Ca2+/Mg2+ free HBSS",4.5 fold
same,effect of FCCP on 4CmC-induced ADO formation,"lymphocyte cells [3]; both tested FCCP concentrations, 1 mM 4CmC during FCCP treatment (FIG. 14B)",prevented the maximum increase in ADO formation
same,effectiveness of FCCP in inducing ADO formation relative to 4CmC,lymphocyte cells [3]; normal swine lymphocytes,25%
